From patent US10738080B2, “Inhibitors of beta integrin-G protein alpha subunit binding interactions” (priority 2010, dated 2020)
Read-outs that look alike come from different tables or passages of the source. No end group written: not given here. *: point of attachment. Myristoyl = CCCCCCCCCCCCCC(=O)*

Legend:
c-Src = conditions: human platelets adherent to fibrinogen
Method: (FIG. 3A) Washed human platelets pre-treated with DMSO, mSRI, or scrambled control peptide were allowed to adhere to fibrinogen and then solubilized at indicated time points. Proteins from lysates were immunoblotted with antibodies to c-Src phosphorylated at Tyr^416, c-Src, or RhoA. GTP-bound RhoA was measured by association with GST-RBD beads (25). See FIG. S4 for quantitative data. (FIG. 3B) Spreading of platelets treated with 0.1% DMSO, scrambled control peptide, or mSRI, in the absence or presence of C3 toxin, Y27632, or 0.01 U/ml thrombin. Platelets were stained with Alexa Fluor 546-conjugated phalloidin.
(FIG. 13A) Platelets were treated with 500 μM control peptide, mP13, mP7, or mP5 peptides, then immunoprecipitated with anti-Gα13 antibody or equal amount of control rabbit IgG. Lysates and immunoprecipitates were immunoblotted with anti-Gα13 or anti-β3 (MAb15) antibody. (FIG. 13B) Human platelets treated with DMSO, Myr-Scrambled peptide or mP5 peptide were allowed to adhere to immobilized fibrinogen, solubilized and analyzed for RhoA activation and c-Src Tyr^416 phosphorylation. (FIG. 13C) Confocal microscopy images of platelets treated with DMSO, Myristoylated Scrambled peptides, and mP5 peptide treated platelets adherent on fibrinogen for 30 minutes, without or with Rho kinase inhibitor Y27632. Merged […] (green) fluorescence and Alexa Fluor 546-conjugated phalloidin (red) fluorescence. (FIG. 13D) Flow cytometry analysis of PAR4AP (50 μM)-induced Oregon-green labelled fibrinogen binding to human platelets pre-treated with DMSO, 250 μM Myr-Scrambled peptide or 250 μM mP5 peptide. (FIG. 13E) Platelets were preincubated with mP5 or scrambled control peptides and then stimulated with thrombin in a platelet aggregometer at 37° C. Platelet aggregation traces were recorded.
Western blot bands were scanned, and analyzed for uncalibrated optical density using NIH Image J software. Student t-test was used to determine statistical significance.

human platelets [1] = conditions: resting platelets, 250 μM peptide
Method: Platelet Adhesion Assays were carried out as follows: As described before(6), microtiter wells were coated with 30 μg/ml fibrinogen in PBS overnight. Washed human platelets in modified Tyrode's buffer in the absence or presence of 1 mM MnCl2 were incubated in the microtiter wells for one hour at 37° C. in a CO2 incubator. After 3 washes, 50 μl of reaction buffer (0.3% p-nitrophenyl phosphate (Sigma) in 1% Triton-X-100, 50 mM sodium acetate, pH 5.0) was added into each microtiter well and incubated at 37° C. for one hour. The reaction was stopped by adding 50 μl of 1 M NaOH. Results were determined by reading OD at 405 nm wave length. The percentage of platelet adhesion was estimated from the ratio of the readings of adherent platelets to that of total platelets. Statistic significance was determined using t test (n=3).

human platelets [2] = tested on: human platelets
Method: (§1) Platelet aggregation assays were carried out as follows: Platelet aggregation and secretion was measured in a turbidometric platelet aggregometer (Chronolog) at 37° C. with stirring (1000 rpm). Washed platelets (3×10^8/ml) in modified Tyrode's buffer were stimulated with thrombin (Enzyme Research Laboratories). For talin knockdown platelet aggregation assay stimulated with manganese and ADP, manganese and ADP was mixed prior to experiment to achieve final concentration of 1 mM manganese and 5 μM ADP in reaction tube. Aggregation traces shown are representative of at least three independent experiments.
Platelet aggregation assays were performed with myristoylated peptide mP5, myristoylated peptide of SEQ: ID NO: 87, or their respective scarmbled control peptides, as essentially described herein. Briefly, washed human platelets were preincubated with 25, 50, 100, 250, or 500 μM peptide solubilized in DMSO.

human platelets [3] = conditions: PAR4AP 50 μM, 250 μM peptide (150 μM also in FIG. 17G)
Method: Washed human or mouse platelets resuspended in modified Tyrode's buffer (3×10^8/ml, 50 μl) were incubated with 10 μg/ml Oregon Green^488-conjugated fibrinogen (Molecular Probes) and 50 μM PAR4AP for 30 minutes at 22° C. as previously described^26. The reaction was diluted with 0.5 ml of PBS and analyzed by flow cytometry using FACS Caliber (BD Biosciences, San Jose, Calif.).

[4] = target: talin association with β3 (Homo sapiens, UniProt Q9Y490); conditions: 500 μM peptide, 0.025 U/ml thrombin at 22° C.
Method: Cell lysates were incubated with rabbit anti-Gα13 IgG (1.5 μg/ml), anti-integrin β3 rabbit serum (5 μl/ml) or an equal amount of rabbit IgG or pre-immune serum at 4° C. overnight, and subsequently with protein A-conjugated Sepharose beads for 1 hour. For the integrin β3 clustering experiment, human platelets (3×10^8) were stimulated with 0.025 U/ml α-thrombin for 2 minutes at room temperature (to avoid platelet aggregation) with or without 2 mM RGDS, then incubated with 5 μl anti-integrin β3 8053 rabbit serum at room temperature for 1 hour, and 5 μg goat anti-rabbit secondary antibody for another 1 hour. Platelets were then solubilized in modified RIPA Buffer. For the un-clustering control and pre-immune serum control, cells were solubilized in modified RIPA Buffer first, than incubated with 5 μl 8053 serum or pre-immune serum. After 3-6 washes with lysis buffer, immunoprecipitates were analyzed by SDS-polyacrylamide gel electrophoresis and Western blots using antibodies against β3, talin, or Gα13. In some experiments, 500 μM control or inhibitor peptides, mP5, mP7 and mP13 were incubated with platelet lysates prior to immunoprecipitation, or 2 mM RGDS was added into washed human platelets before stimulation by 0.025 U/ml α-thrombin. GST bead pull down analysis was previously described^8. […] Bead-bound proteins were analyzed by immunoblotting.

mouse platelets = conditions: 30 μM peptide
Method: as §1

platelets = conditions: ATP secretion
Method: as §1

Sequence of talin association with β3 (Q9Y490 whole entry): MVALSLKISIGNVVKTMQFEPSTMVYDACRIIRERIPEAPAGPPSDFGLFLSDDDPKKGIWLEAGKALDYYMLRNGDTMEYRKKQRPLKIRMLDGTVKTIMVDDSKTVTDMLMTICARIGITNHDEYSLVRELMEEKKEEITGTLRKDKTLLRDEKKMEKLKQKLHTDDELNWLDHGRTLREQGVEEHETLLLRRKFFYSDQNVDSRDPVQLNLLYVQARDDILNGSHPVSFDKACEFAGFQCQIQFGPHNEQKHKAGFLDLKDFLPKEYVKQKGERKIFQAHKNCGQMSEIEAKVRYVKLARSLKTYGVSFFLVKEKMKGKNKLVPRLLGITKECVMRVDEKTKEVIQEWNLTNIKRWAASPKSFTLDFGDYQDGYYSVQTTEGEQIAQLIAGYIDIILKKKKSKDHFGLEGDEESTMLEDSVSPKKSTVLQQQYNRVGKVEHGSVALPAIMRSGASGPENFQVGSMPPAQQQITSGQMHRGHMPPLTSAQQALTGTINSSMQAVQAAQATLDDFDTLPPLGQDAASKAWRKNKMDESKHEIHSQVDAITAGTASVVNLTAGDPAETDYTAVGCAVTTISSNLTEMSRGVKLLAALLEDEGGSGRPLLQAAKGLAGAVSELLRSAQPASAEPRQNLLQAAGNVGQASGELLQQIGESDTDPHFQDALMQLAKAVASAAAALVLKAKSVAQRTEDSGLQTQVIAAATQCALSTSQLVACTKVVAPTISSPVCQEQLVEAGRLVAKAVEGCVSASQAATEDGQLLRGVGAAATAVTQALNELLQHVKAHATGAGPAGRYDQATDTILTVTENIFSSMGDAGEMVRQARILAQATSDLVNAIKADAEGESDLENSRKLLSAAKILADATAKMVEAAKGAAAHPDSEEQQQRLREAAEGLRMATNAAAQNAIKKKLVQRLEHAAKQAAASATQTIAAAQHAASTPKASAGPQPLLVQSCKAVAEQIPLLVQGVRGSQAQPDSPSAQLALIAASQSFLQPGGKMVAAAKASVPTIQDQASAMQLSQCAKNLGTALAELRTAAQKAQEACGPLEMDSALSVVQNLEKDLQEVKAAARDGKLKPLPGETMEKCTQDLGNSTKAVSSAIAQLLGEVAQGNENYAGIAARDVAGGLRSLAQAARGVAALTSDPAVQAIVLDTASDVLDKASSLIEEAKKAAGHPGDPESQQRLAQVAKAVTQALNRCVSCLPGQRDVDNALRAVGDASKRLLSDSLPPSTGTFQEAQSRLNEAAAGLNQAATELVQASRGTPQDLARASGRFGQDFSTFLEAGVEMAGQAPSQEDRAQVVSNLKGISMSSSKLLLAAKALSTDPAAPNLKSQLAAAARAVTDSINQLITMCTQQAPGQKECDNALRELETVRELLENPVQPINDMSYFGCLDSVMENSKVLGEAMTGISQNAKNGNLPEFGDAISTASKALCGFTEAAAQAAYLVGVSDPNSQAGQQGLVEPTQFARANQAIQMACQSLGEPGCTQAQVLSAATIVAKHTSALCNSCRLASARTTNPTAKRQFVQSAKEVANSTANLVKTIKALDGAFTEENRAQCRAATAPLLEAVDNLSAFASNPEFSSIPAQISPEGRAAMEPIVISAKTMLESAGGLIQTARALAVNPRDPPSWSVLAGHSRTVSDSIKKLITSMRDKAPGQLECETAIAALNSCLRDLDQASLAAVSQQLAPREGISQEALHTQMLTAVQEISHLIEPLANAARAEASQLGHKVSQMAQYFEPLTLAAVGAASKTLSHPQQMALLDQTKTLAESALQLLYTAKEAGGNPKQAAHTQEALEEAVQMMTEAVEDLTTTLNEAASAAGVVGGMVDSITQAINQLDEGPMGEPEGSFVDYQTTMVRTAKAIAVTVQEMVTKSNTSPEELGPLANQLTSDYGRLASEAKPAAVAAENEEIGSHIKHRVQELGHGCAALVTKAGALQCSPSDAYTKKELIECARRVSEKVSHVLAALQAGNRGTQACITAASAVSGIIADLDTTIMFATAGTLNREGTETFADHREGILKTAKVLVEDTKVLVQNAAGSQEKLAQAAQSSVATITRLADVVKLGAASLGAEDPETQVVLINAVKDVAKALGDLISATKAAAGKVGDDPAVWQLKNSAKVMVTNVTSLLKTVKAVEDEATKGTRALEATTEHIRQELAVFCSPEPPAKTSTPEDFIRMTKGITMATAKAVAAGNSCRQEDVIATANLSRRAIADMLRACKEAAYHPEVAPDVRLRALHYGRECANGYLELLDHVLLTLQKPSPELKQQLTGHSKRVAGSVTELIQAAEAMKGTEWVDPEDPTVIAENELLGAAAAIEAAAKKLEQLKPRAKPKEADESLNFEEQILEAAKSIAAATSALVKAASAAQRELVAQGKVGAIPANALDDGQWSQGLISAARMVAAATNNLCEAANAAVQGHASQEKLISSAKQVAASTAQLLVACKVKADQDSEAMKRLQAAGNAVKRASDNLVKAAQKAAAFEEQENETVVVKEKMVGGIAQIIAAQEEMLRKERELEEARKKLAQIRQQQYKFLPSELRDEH

Substance	integrin-dependent phosphorylation of c-Src Tyr416 (c-Src activation) (c-Src)	platelet adhesion to immobilized fibrinogen (human platelets [1])	platelet aggregation induced by thrombin (human platelets [2])	second wave of platelet aggregation (human platelets [2])	platelets aggregation induced by thrombin (human platelets [2]; 30 μM peptide, human platelets)	platelets aggregation induced by thrombin (human platelets [2]; 200 μM peptide)	integrin-dependent phosphorylation of c-Src Tyr416 (c-Src activation) (c-Src; listed as Myr-P5)	agonist (PAR4AP)-induced fibrinogen binding to platelets (inside-out signaling) (human platelets [3])	agonist (PAR4AP)-induced fibrinogen binding to platelets (inside-out signaling) (human platelets [3]; listed as Myr-P5)	talin association with β3 [4]	platelets aggregation induced by thrombin (mouse platelets)	platelet granule secretion (platelets)
Myristoyl-LLARRPTKGIHEY [mSRI]	inhibited											
Myristoyl-KFEEERA [mP7]	inhibited											
Myr-EEERA [mP5]	inhibited	nor does it affect	inhibited	inhibited	inhibited	inhibited	decreased	no effect	without affecting	not	inhibited	inhibited
Myristoyl-KFEEERARAKWDT [mP13]	inhibited	inhibited								inhibited		
